{"source": "patent US10696686B2", "about": "“Herbicidally active (alkynyl-phenyl)-substituted cyclic dione compounds and derivatives thereof” (Syngenta Limited, priority 2013, dated 2020)", "assay_in_all_cases": "Biological Example 3 glasshouse assay using various adjuvant systems, post-emergence foliar spray", "type_in_all_cases": "in vivo", "key": {"Eleusine indica (ELEIN)": {"system": "Eleusine indica (ELEIN)", "details": "8 g/ha, 14 DAA (A11: 14 or 15 DAA), adjuvant 0.5% v/v Adigor + 1.0% v/v AMS + 12.5% v/v IPA", "protocol": "(§1) Post-emergence foliar spray application, 200 L/ha, usually one or two replicates for the weeds (depending on application rate), and two replicates for soybean.\n(§2) Standard warm conditions (tropical), in glasshouse. Specifically, the glasshouse bay conditions are 24° C./18° C. day/night; 16/8 hours light/dark; 65% humidity.\n(§3) The herbicidal application takes place at the following growth stages for plants which include inter alia one or more of the following plants (usually the herbicidal application takes place on at least the following plants: DIGSA, ELEIN, SETFA, ZEAMX, GLXMA Nikko, and GLXMA TMG133, and often also either BRADC or BRAPP):\nEleusine indica (ELEIN)—growth stage 12 or 13\n(§4) Each test compound is applied with one of the following adjuvant systems (all percentages are final concentrations in the aqueous spray mixture):\n(§5) Adjuvant system 1: 0.5% v/v Adigor™ *, 1.0% v/v AMS (ammonium sulphate) and 12.5% v/v IPA (isopropyl alcohol).\n(§6) Adjuvant system 1A: 0.5% v/v Adigor™ * and 12.5% v/v IPA (isopropyl alcohol).\n(§7) CAS Registry no. […] A visual assessment of the % herbicidal damage is made 7 and 14 Days After herbicide Application (DAA) (or, in a minority of cases, 7 and 15 DAA), and the results are recorded as % visual herbicidal damage where 0%=no damage to plants and 100%=plant totally killed. *** Adjuvant system=either Adigor™ or Hexamoll DINCH™ or tris-(2-ethylhexyl) phosphate each at 0.5% v/v, and 12.5% v/v IPA (isopropyl alcohol), and 1.0% v/v AMS (ammonium sulphate); or 0.5% v/v Adigor™ and 12.5% v/v IPA (isopropyl alcohol); all percentages are final concentrations in the aqueous spray mixture. […]\n(§8) The percentages of herbicidal damage/plant control, at 14 Days After herbicide Application (DAA) (or, in a minority of cases, at 15 DAA), for the Compounds tested and for some of the plants tested, were in the following percentage ranges. […] Phytotoxicity on Glycine max (GLXMA, Soybean) Cultivar “TMG133” Glycine max (GLXMA, soybean) cultivar “TMG133” is Roundup Ready™ glyphosate-tolerant soybean cultivar TMG133, and is typically available from Monsanto in Brazil."}, "[1]": {"system": "Brachiaria decumbens (BRADC)", "details": "8 g/ha, 14 DAA (A11: 14 or 15 DAA), adjuvant 0.5% v/v Adigor + 1.0% v/v AMS + 12.5% v/v IPA", "protocol": "as §1, §2, §3\nBrachiaria decumbens (BRADC)—growth stage (GS) 12 or 13 (or GS 12)—or, if BRADC is not used, then usually Brachiaria platyphylla (BRAPP)—growth stage 12 or 13\nas §4, §5, §6\n(§9) CAS Registry no. 166412-78-8), and is usually available from BASF. “Isononyl” in this context is thought to mean a mixture of two or more branched isomers of C9H19. […] A visual assessment of the % herbicidal damage is made 7 and 14 Days After herbicide Application (DAA) (or, in a minority of cases, 7 and 15 DAA), and the results are recorded as % visual herbicidal damage where 0%=no damage to plants and 100%=plant totally killed. *** Adjuvant system=either Adigor™ or Hexamoll DINCH™ or tris-(2-ethylhexyl) phosphate each at 0.5% v/v, and 12.5% v/v IPA (isopropyl alcohol), and 1.0% v/v AMS (ammonium sulphate); or 0.5% v/v Adigor™ and 12.5% v/v IPA (isopropyl alcohol); all percentages are final concentrations in the aqueous spray mixture. […]"}, "[2]": {"system": "Glycine max (GLXMA, soybean) cultivar Nikko", "details": "post-emergence, 14 DAA (A11: 14 or 15 DAA), adjuvant 0.5% v/v Adigor + 1.0% v/v AMS + 12.5% v/v IPA", "protocol": "as §1, §2, §3\nGlycine max (GLXMA, soybean) cultivar “Nikko”—growth stage: 1st trifoliate\nas §4, §5, §6\n(§10) CAS Registry no. 166412-78-8), and is usually available from BASF. “Isononyl” in this context is thought to mean a mixture of two or more branched isomers of C9H19. Method: Seeds of the weed (including volunteer) plants, typically including inter alia Digitaria sanguinalis (DIGSA), Eleusine indica (ELEIN), Setaria faberi (SETFA), Zea mays (ZEAMX, corn), and sometimes also [either Brachiaria decumbens (BRADC) or Brachiaria platyphylla (BRAPP)], are sown in seed trays (troughs) containing clay loam soil (pH 7.0, 2.2% organic matter, “Trough Mix A”); and soybean seed is sown in pots containing the same soil with 3 soybean seedlings per pot. The plants are sprayed with the test herbicide when they reach the growth stages mentioned above. The test herbicidal solutions are prepared by mixing the appropriate aliquots of the test substance(s) and one of the adjuvant systems indicated above *** in deionised water to give the desired treatment concentration. The herbicidal application is made as a foliar spray, using a tracksprayer. Following the herbicidal application, the plants are watered twice per day for the duration of the test. A visual assessment of the % herbicidal damage is made 7 and 14 Days After herbicide Application (DAA) (or, in a minority of cases, 7 and 15 DAA), and the results are recorded as % visual herbicidal damage where 0%=no damage to plants and 100%=plant totally killed. *** Adjuvant system=either Adigor™ or Hexamoll DINCH™ or tris-(2-ethylhexyl) phosphate each at 0.5% v/v, and 12.5% v/v IPA (isopropyl alcohol), and 1.0% v/v AMS (ammonium sulphate); or 0.5% v/v Adigor™ and 12.5% v/v IPA (isopropyl alcohol); all percentages are final concentrations in the aqueous spray mixture.\n(§11) Compounds A8, A11 and A17, which are compounds of formula (I) according to the present invention, were tested in a test method substantially as described above.\n(§12) Compound A8 was tested using the 0.5% v/v Adigor™+12.5% v/v IPA adjuvant system. Compounds A11 and A17 were tested using the 0.5% v/v Adigor™+1.0% v/v AMS+12.5% v/v IPA adjuvant system.\nThe percentages of herbicidal damage/plant control, at 14 Days After herbicide Application (DAA) (or, in a minority of cases, at 15 DAA), for the Compounds tested and for some of the plants tested, were in the following percentage ranges. At least for Compounds A8 and A17, the phytotoxicity results shown herein are the average of 2 repetitions (for the grassy weeds, corn and soybean). […] Control of Zea mays (ZEAMX, Corn), a Warm-Climate (Warm-Season) Grassy Plant Zea mays (ZEAMX, maize, corn) is often present as a “volunteer” weed (“volunteer” corn) in fields where it was planted as a crop in preceding growing season(s) and where the present field crop is not corn. […]"}, "Setaria faberi (SETFA)": {"system": "Setaria faberi (SETFA)", "details": "8 g/ha, 14 DAA (A11: 14 or 15 DAA), adjuvant 0.5% v/v Adigor + 1.0% v/v AMS + 12.5% v/v IPA", "protocol": "as §1, §2, §3\nSetaria faberi (SETFA)—growth stage 12 or 13\nas §4, §5, §6, §7, §8"}, "[3]": {"system": "Glycine max (GLXMA, soybean) cultivar TMG133", "details": "14 DAA (A11: 14 or 15 DAA), adjuvant 0.5% v/v Adigor + 1.0% v/v AMS + 12.5% v/v IPA", "protocol": "as §1, §2, §3\nGlycine max (GLXMA, soybean) cultivar “TMG133”—which is Roundup Ready™ glyphosate-tolerant soybean cultivar TMG133 (typically available from Monsanto in Brazil)—growth stage: 1st trifoliate.\nas §4, §5, §6, §10, §11, §12\nThe percentages of herbicidal damage/plant control, at 14 Days After herbicide Application (DAA) (or, in a minority of cases, at 15 DAA), for the Compounds tested and for some of the plants tested, were in the following percentage ranges. […]"}, "[4]": {"system": "Digitaria sanguinalis (DIGSA)", "details": "8 g/ha, 14 DAA (A11: 14 or 15 DAA), adjuvant 0.5% v/v Adigor + 1.0% v/v AMS + 12.5% v/v IPA", "protocol": "as §1, §2, §3\nDigitaria sanguinalis (DIGSA)—growth stage 12 or 13\nas §4, §5, §6, §7\nThe percentages of herbicidal damage/plant control, at 14 Days After herbicide Application (DAA) (or, in a minority of cases, at 15 DAA), for the Compounds tested and for some of the plants tested, were in the following percentage ranges. […] Phytotoxicity on Glycine max (GLXMA, Soybean) Cultivar “TMG133” Glycine max (GLXMA, soybean) cultivar “TMG133” is Roundup Ready™ glyphosate-tolerant soybean cultivar TMG133, and is typically available from Monsanto in Brazil. […]"}, "[5]": {"system": "Zea mays (ZEAMX, maize, corn) cultivar Garland", "details": "8 g/ha, 14 DAA (A11: 14 or 15 DAA), adjuvant 0.5% v/v Adigor + 1.0% v/v AMS + 12.5% v/v IPA", "protocol": "as §1, §2, §3\nZea mays (ZEAMX, maize/corn, e.g. can occur as volunteer corn) cultivar “Garland”—growth stage 12 or 13\nas §4, §5, §6, §9"}}, "data": [{"smiles": "CC#Cc1cc(F)c(C2C(=O)CCCC2=O)c(OC)c1", "note": "[Compound A17]", "values": [{"measurement": "percentage control of Eleusine indica (ELEIN)", "setting": "Eleusine indica (ELEIN)", "result": 0, "unit": "%"}, {"measurement": "percentage control of (phytotoxicity on) Brachiaria decumbens (BRADC)", "setting": "[1]", "result": 0, "unit": "%"}, {"measurement": "percentage phytotoxicity on Glycine max (GLXMA, soybean) cultivar Nikko", "setting": "[2]; 120 g/ha", "result": 5, "unit": "%"}, {"measurement": "percentage phytotoxicity on Glycine max (GLXMA, soybean) cultivar Nikko", "setting": "[2]; 240 g/ha", "result": 7.5, "unit": "%"}, {"measurement": "percentage control of Setaria faberi (SETFA)", "setting": "Setaria faberi (SETFA)", "result": 0, "unit": "%"}, {"measurement": "percentage phytotoxicity on Glycine max (GLXMA, soybean) cultivar TMG133", "setting": "[3]; 120 g/ha", "result": 5, "unit": "%"}, {"measurement": "percentage phytotoxicity on Glycine max (GLXMA, soybean) cultivar TMG133", "setting": "[3]; 240 g/ha", "result": 7.5, "unit": "%"}, {"measurement": "percentage control of Digitaria sanguinalis (DIGSA)", "setting": "[4]", "result": 0, "unit": "%"}, {"measurement": "percentage control of Zea mays (ZEAMX, maize, corn)", "setting": "[5]", "result": 0, "unit": "%"}]}]}
